The results in this text go back to patent US6586613B1, “Substituted tetrahydronaphthaline and analogous compounds” (Bayer Aktiengellschaft, priority 1997, dated 2003).

The test system of one assay is transgenic hCETP mice. The assay is described as follows: In vivo activity in transgenic hCETP mice (lipoproteins and triglycerides in serum). Particulars: 30 ppm via the feed, after one week. Here is the method: In vivo Activity in Transgenic hCETP Mice
The substances to be tested were administered to transgenic mice, which were bred in our own laboratory (Dinchuck, Hart, Gonzalez, Karmann, Schmidt, Wirak; BBA (1995), 1295, 301), via the feed. Prior to the beginning of the experiment, blood samples were taken retro-orbitally from the mice to determine cholesterol and triglycerides in the serum. The serum was obtained as described above for hamsters by incubation at 4° C. overnight and subsequent centrifugation at 6000×g. After one week, blood samples were again taken from the mice to determine lipoproteins and triglycerides. The change of the measured parameters are expressed as a change in percent based on the initial value.

The target of assay [1] is T1, cholesterol ester transfer protein (CETP) (Homo sapiens, UniProt P11597).
T1 construct: CETP is obtained in partially purified form from human plasma by differential centrifugation and column chromatography; from tissue; host or cells: human plasma
T1 sequence (P11597 18-493): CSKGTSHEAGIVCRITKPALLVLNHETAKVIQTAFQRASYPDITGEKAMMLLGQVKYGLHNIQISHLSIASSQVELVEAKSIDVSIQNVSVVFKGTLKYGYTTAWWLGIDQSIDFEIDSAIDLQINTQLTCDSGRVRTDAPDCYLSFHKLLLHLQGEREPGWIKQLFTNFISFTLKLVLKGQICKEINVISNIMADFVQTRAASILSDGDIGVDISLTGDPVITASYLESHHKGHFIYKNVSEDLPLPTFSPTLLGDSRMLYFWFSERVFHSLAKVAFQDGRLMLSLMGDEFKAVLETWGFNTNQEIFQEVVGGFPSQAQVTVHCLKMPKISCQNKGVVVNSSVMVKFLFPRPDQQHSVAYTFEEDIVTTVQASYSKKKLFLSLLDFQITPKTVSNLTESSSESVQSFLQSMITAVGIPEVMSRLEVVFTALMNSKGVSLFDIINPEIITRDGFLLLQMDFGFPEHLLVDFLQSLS
The assay is described as follows: CETP inhibition test (transfer of 3H-cholesterol ester from HDL to biotinylated LDL, SPA). Type of assay: biochemical. To be noted: CETP partially purified from human plasma; 37° C., 18 h. Here is the method: CETP is obtained in partially purified form from human plasma by differential centrifugation and column chromatography and used for the test. For this purpose, human plasma is adjusted to a density of 1.21 g per ml using NaBr and centrifuged at 50,000 rpm at 4° C. for 18 h. The bottom fraction (d>1.21 g/ml) is applied to a Sephadex®Phenyl-Sepharose 4B (Pharmacia) column, washed with […]/0.001 M TrisHCl pH 7.4 and subsequently eluted using dist. water. The CETP-active fractions are pooled, dialysed against 50 mM Na-acetate pH 4.5 and applied to a CM-Sepharose® (Pharmacia) column. Elution is subsequently carried out using a linear gradient (0-1 M NaCl). The pooled CETP fractions are dialysed against 10 mM TrisHCl pH 7.4 and subsequently purified further by chromatography over a Mono Q® column (Pharmacia).
Preparation of Radioactively Labelled HDL
50 ml of fresh human EDTA plasma is adjusted to a density of 1.12 using NaBr and centrifuged at 4° C. in a Ty 65 rotor at 50,000 rpm for 18 h. The upper phase is used to obtain cold LDL. […]
To assess the CETP activity, the transfer of ^3H-cholesterol ester from human HD-lipoproteins to biotinylated LD-lipoproteins is measured.
The reaction is terminated by addition of Streptavidin-SPA® beads (Amersham) and the transferred radioactivity is directly measured in a liquid scintillation counter. […]

Another assay relates to CETP activity. Put plainly: Ex vivo activity: CETP activity in serum of treated hamsters. Particulars: Syrian gold hamsters; for ED50 for ex vivo activity: CETP activity in serum; for % inhibition at 3 mg/kg: ex vivo CETP activity in serum. Here is the method: Ex vivo Activity of the Compounds According to the Invention
Syrian gold hamsters, which have been bred in our own laboratory, are anaesthetized after 24 hours of fasting (0.8 mg/kg of atropine, 0.8 mg/kg of Ketavet® s.c., 30′ later 50 mg/kg of nembutal i.p.). The jugular vein is subsequently exposed and cannulated. The test substance is dissolved in a suitable solvent (usually adalate placebo solution: 60 g of glycerol, 100 ml of H2O, ad 1000 ml PEG-400) and administered to the animals via a PE catheter, which is introduced into the jugular vein. The same volume of solvent without test substance is administered to the control animals. The vein is subsequently tied off and the wound is closed.
The test substances can also be administered p.o. by dissolving the substances in DMSO and suspending them in 0.5% tylose and administering them using a pharyngeal tube. Identical volumes of solvent without test substance are administered to the control animals.
At different intervals—up to 24 hours after the administration—blood samples are taken from the animals by puncture of the retro-orbital venous plexus (approximately 250 μl). Coagulation is completed by incubation at 4° C. overnight, and the samples are subsequently centrifuged at 6000×g for 10 minutes. The CETP activity is determined in the resulting serum using the modified CETP test. The transfer of ^3H-cholesterol ester from HD-lipoproteins to biotinylated LD-lipoproteins is measured as described above for the CETP test.
The reaction is terminated by addition of Streptavidin-SPA® beads (Amersham), and the transferred radioactivity is directly determined in a liquid scintillation counter.
The test protocol is carried out as described under “CETP test”. However, to test the sera, 10 μl of CETP are replaced by 10 μl of the appropriate serum samples. Corresponding incubations of sera of untreated animals serve as controls.
The activity that is transferred in the control experiments using control sera is classified as 100% transfer. The substance concentration at which this transfer is reduced by half is stated as the ED50 value.

The next assay has as its system Syrian gold hamsters. Put plainly: In vivo activity: HDL increase after oral administration to hamsters. Particulars: perorally. Here is the method: In vivo Activity of the Compounds According to the Invention
In experiments for assessing the oral activity on lipoproteins and triglycerides, test substance, dissolved in DMSO and suspended in 0.5% tylose, is administered perorally by means of a pharyngeal tube to Syrian gold hamsters which have been bred in our own laboratory. To determine the CETP activity, blood samples (approximately 250 μl) are taken by retro-orbital puncture prior to the start of the experiment. The test substances are subsequently administered perorally using a pharyngeal tube. Identical volumes of solvent without test substance are administered to the control animals. […]
Coagulation is completed by incubation at 4° C. overnight, and the samples are subsequently centrifuged at 6000×g for 10 minutes. The content of cholesterol and triglycerides in the resulting serum is assessed using modified commercially available enzyme tests (cholesterol enzymatic 14366 Merck, triglycerides 14364 Merck). […]
100 μl of serum dilution and 100 μl of test substance are transferred into 96-well-plates and incubated at room temperature for 10 minutes. The optical density is subsequently determined at a wavelength of 492 nm using an automatic plate reader.
The triglyceride and cholesterol concentrations of the samples are determined with the aid of a standard curve measured in parallel. […]

As to `CC(C)c1cc2c(c(-c3ccc(F)cc3)c1[C@@H](F)c1ccc(C(F)(F)F)cc1)[C@@H](O)CC1(CCC1)C2` [Example 15, (S)-8-Hydroxy-1-(4-fluorophenyl)-2-[(S)-fluoro-(4-trifluoromethyl-phenyl)-methyl]-3-isopropyl-6-spiro-cyclobutyl-5,6,7,8-tetrahydronaphthalene], in the assay on transgenic hCETP mice, the “HDL, change in percent based on the initial value” was “+60%”; the “LDL, change in percent based on the initial value” is listed as −18%; the “Triglycerides, change in percent based on the initial value” was −15%.

Consider `CC(C)c1cc2c(c(-c3ccc(F)cc3)c1[C@@H](F)c1ccc(C(F)(F)F)cc1)[C@@H](O)CC(C)(C)C2` [Example 25], for which the IC50 in assay [1] came out at 3 nM. Further, in the assay with CETP activity, the “ED50 for ex vivo activity” value was below 0.3 mg/kg and the “% inhibition at 3 mg/kg” value was determined as 83.1%. Besides, in the assay with Syrian gold hamsters (dose 2 × 1 mg/kg), the “% HDL increase” value is “+15%”.

In turn, `O[C@H]1CC2(CCC2)Cc2cc(C3CCCC3)c([C@@H](F)c3ccc(C(F)(F)F)cc3)c(-c3ccc(F)cc3)c21` [Example 31] gave an IC50 in assay [1] of 2.7 nM. Moreover, in the assay with CETP activity, the “ED50 for ex vivo activity” value was below 0.3 mg/kg and the “% inhibition at 3 mg/kg” value came out at 72.3%. In addition, in the assay with Syrian gold hamsters (dose 2 × 0.3 mg/kg), the “% HDL increase” value is given as “+19%”.
